Experimental findings from PubChem BioAssay AID792 (PCMD, 2007) are described below.

Records with an inconclusive call do not appear. The source made the active and inactive calls. How the calls were made is not given here. Some results are limits rather than exact numbers.

The target in the test is S. cerevisiae eIF2B mutant, luciferase reporter luminescence. Kind of test: potency on yeast eIF2B luminescence signal – S. cerevisiae, mutant, wild-type, growth, dose response (AID 792).
Where [1] appears, read: measured here: mutant yeast growth.
[2] abbreviates: S. cerevisiae wild-type, luminescence.

As for `COc1cc(NS(=O)(=O)c2ccc3c(c2)n(C)c(=O)n3C)cc(OC)c1`, the IC50 (usually the concentration at which inhibition is half-maximal) is > 100 µM (inactive). This compound came in with an IC50 under setting [1] of more than 100 µM.

As for `Cc1cc(C)n(-c2cc(=O)n(C)c(=O)n2C)n1`, the IC50 was > 100 µM (inactive). Moreover, the IC50 under setting [1] is more than 100 µM.

For the compound `COc1ccc(OC)c(N/C(C)=C/C(=O)c2ccc(C)o2)c1`, the IC50 is > 100 µM (inactive). The compound also showed an IC50 under setting [2] of more than 100 µM. Besides, the IC50 under setting [1] is more than 100 µM.

In the case of `CCN(CC)c1ncnc2sc(C(=O)N3CCN(c4ccccc4)CC3)c(C)c12`, the IC50 was > 100 µM (inactive). Under setting [1], this compound registered an IC50 of more than 100 µM.

With `CN(C)P(=O)(C(Cl)=C(N1CCCCC1)N1CCCCC1)N(C)C`, the IC50 was > 100 µM (inactive). The IC50 under setting [1] is more than 100 µM.

Consider `CCCCN1C(=O)CN(CCc2ccccc2)C(=O)C1c1ccc(OC)cc1` (configuration not stated), for which the IC50 is > 100 µM (inactive). This compound also returned a 50% inhibitory concentration (IC50) under setting [1] of more than 100 µM.

For `O=S(=O)(N1CCCCC1)N1CCCN(S(=O)(=O)N2CCCCC2)CC1`, the IC50 was > 100 µM (inactive). Under setting [1], this compound registered an IC50 of more than 100 µM.

For `Cc1[nH]c(=O)c(C#N)c2c1CSC(C)(C)C2`, the IC50 is > 100 µM (inactive). The compound also yielded an IC50 under setting [1] of more than 100 µM.

As to `CCOC(=O)c1ccc(N2C(=O)C=CC2=O)cc1`, the IC50 result was “inactive”. Besides, under setting [1], the half-maximal inhibitory concentration (IC50) amounted to 6.02 µM.

As to `N#CCN1CCN(CC(=O)Nc2ccc(OCc3ccccc3)cc2)CC1`, the IC50 is > 100 µM (inactive). Besides, the IC50 under setting [1] is more than 100 µM.

On to `Nc1nnnn1/N=C/c1ccc(O)cc1`, for which the IC50 entry is “inactive”. The compound further had an IC50 under setting [2] of 2.78 µM. Under setting [1], this compound had an IC50 of more than 100 µM.

For the compound `Cc1cc(C)nc(Nc2n[nH]c(COc3ccc(Cl)cc3)n2)n1`, the IC50 is > 100 µM (inactive). Also, the half-inhibitory concentration (IC50) under setting [1] is more than 100 µM.

Consider `Cc1c(C(=O)Nc2nccs2)sc2nc(-c3cccs3)cc(C(F)(F)F)c12`, for which the IC50 was > 100 µM (inactive). Under setting [1], the IC50 is more than 100 µM.

With `COc1ccccc1CNC(=O)CN1CCC(NC(=O)c2ccccc2F)CC1`, the IC50 is > 100 µM (inactive). Also, under setting [1], the IC50 was more than 100 µM.

For the compound `CN1CCc2nc(SCC(=O)Nc3ccc(Cl)cc3)c(C#N)cc2C1`, the IC50 is > 100 µM (inactive). Further, the IC50 under setting [1] was more than 100 µM.

As for `Nc1ccc2oc(CCc3ccccc3)nc2c1`, the IC50 was > 100 µM (inactive). Besides, the IC50 under setting [1] was more than 100 µM.

On to `COCC(=O)Nc1cc(OC)c(Cl)cc1OC`, for which the IC50 was > 100 µM (inactive). Under setting [1], this compound showed an IC50 of more than 100 µM.

With `CCN(CC)c1ncnc2sc(C(=O)N3CCN(c4ccc(OC)cc4)CC3)c(C)c12`, the IC50 is > 100 µM (inactive). Under setting [1], this compound displayed an IC50 of more than 100 µM.

Regarding `COC(=O)c1sc(NC(=O)COc2cccc3ccccc23)nc1C`, the IC50 was > 100 µM (inactive). The IC50 under setting [1] was more than 100 µM.

On to `CCN(C(C)=O)c1nc(CSc2nnc(NC(C)C)s2)cs1`, for which the IC50 was > 100 µM (inactive). Under setting [1], the IC50 was more than 100 µM.

`COC(=O)NC(=C(Cl)Cl)S(=O)(=O)c1ccccc1`: the IC50 is > 100 µM (inactive). Also, under setting [1], the IC50 is more than 100 µM.

Consider `CCOC(=O)C1=C(C)NC(SCc2cc(=O)[nH][nH]2)=C(C#N)C1c1cccs1` (configuration not stated), for which the IC50 was > 100 µM (inactive). Besides, the IC50 under setting [1] is more than 100 µM.

As to `COc1ccc(NC(=O)c2ccco2)cc1NC(=O)c1ccc(C)cc1`, the IC50 was > 100 µM (inactive). Besides, the concentration for half-maximal inhibition (IC50) under setting [1] was more than 100 µM.

Regarding `CCCCCn1c(SCC(=O)OCC)nc2cc(C(=O)NCc3ccco3)ccc2c1=O`, the IC50 is > 100 µM (inactive). This compound also registered an IC50 under setting [1] of more than 100 µM.

Take `CCn1c(Cc2ccccc2)nnc1SCC(=O)Nc1nnc(-c2ccccc2)s1`: the IC50 is > 100 µM (inactive). Moreover, the IC50 under setting [1] was more than 100 µM.

Take `Cc1cc(C)c(C#N)c(SCC(=O)Nc2nnc(-c3ccccc3)s2)n1`: the IC50 was > 100 µM (inactive). The IC50 under setting [1] is more than 100 µM.

`CN1C(=O)NC(c2ccccc2)C2=C1CN(c1cccc(C(F)(F)F)c1)C2=O` (configuration not stated): the IC50 is > 100 µM (inactive). Under setting [1], the IC50 is more than 100 µM.

For the compound `Cc1ncc(CO)c2cc(C(N)=O)c(=Nc3ccccc3)oc12`, the IC50 was > 100 µM (inactive). Under setting [1], this compound registered an IC50 of more than 100 µM.

Consider `Cc1ccc(OCCCC(=O)Nc2ccc(S(=O)(=O)Nc3cc(C)on3)cc2)cc1`, for which the IC50 is > 100 µM (inactive). Under setting [1], the 50% inhibitory concentration (IC50) is more than 100 µM.

On to `CC1(C)CC(=O)C=C(NCCCNC2CCCCC2)C1`, for which the IC50 was > 100 µM (inactive). The compound further came in with an IC50 under setting [1] of more than 100 µM.

For `COc1cc(/C=C2\C(=O)N(CCC#N)N=C2C)c(Br)cc1OC(C)C`, the IC50 was > 100 µM (inactive). Further, the IC50 under setting [1] is more than 100 µM.

Turning to `Cc1ccc(C(=O)Nc2ncc(C)s2)o1`, the IC50 entry is “inactive”. For the same compound, under setting [2], the IC50 was 17.6 µM. The compound further yielded an IC50 under setting [1] of more than 100 µM.

Turning to `C=CCN(Cc1cccc(OC)c1OC)S(=O)(=O)N(C)C`, the IC50 was > 100 µM (inactive). Under setting [1], this compound showed an IC50 of more than 100 µM.

For the compound `O=C(Nc1cccnc1)c1noc2c1CCCCC2`, the IC50 result is “inactive”. Under setting [2], this compound came in with an IC50 of 97.3 µM. Under setting [1], the IC50 was more than 100 µM.

`Cc1c(C(=O)N2CCN(c3ccccc3F)CC2)sc2nc(-c3ccccc3)cn12`: the IC50 is > 100 µM (inactive). Also, under setting [1], the IC50 was more than 100 µM.

Regarding `CCCCCn1c(NC(=O)c2ccco2)c(S(=O)(=O)c2ccc(C)cc2)c2nc3ccccc3nc21`, the IC50 is > 100 µM (inactive). This compound also came in with an IC50 under setting [1] of more than 100 µM.

With `CCOC(=O)c1nn(-c2cccc(Cl)c2)c2nc(CC(C)C)c(C#N)c(=O)n12`, the IC50 was > 100 µM (inactive). Under setting [1], this compound gave an IC50 of more than 100 µM.

Take `N#Cc1c(/N=C/c2cc(Br)cs2)sc2c1CCC2`: the IC50 was > 100 µM (inactive). Further, the IC50 under setting [1] is more than 100 µM.

On to `Cn1c(SCc2ccc(F)cc2)nnc1-c1cccs1`, for which the IC50 is > 100 µM (inactive). Also, the IC50 under setting [1] is more than 100 µM.

Consider `CCOC(=O)Cn1c(=O)c(-c2ccccc2NCc2ccccc2)nc2ccccc21`, for which the IC50 was > 100 µM (inactive). The 50% inhibitory concentration (IC50) under setting [1] was more than 100 µM.

Consider `O=C(C1CCN(S(=O)(=O)N2CCOCC2)CC1)N1CCOCC1`, for which the IC50 was > 100 µM (inactive). Under setting [2], this compound gave a concentration for half-maximal inhibition (IC50) of more than 100 µM. The IC50 under setting [1] was more than 100 µM.

As for `CC(C)C1Oc2ccccc2N(CC(=O)N(Cc2ccccn2)CC2CCCO2)C1=O` (configuration not stated), the IC50 was > 100 µM (inactive). The compound also returned a concentration for half-maximal inhibition (IC50) under setting [1] of more than 100 µM.

For `Cc1nnc(NC(=O)C2(c3ccccc3)CCOCC2)s1`, the IC50 was > 100 µM (inactive). The same compound yielded an IC50 under setting [1] of more than 100 µM.

Turning to `CC(=O)Nc1ccc(Oc2cc(C#N)c(C#N)cc2N2CCCCCC2)cc1`, the IC50 is > 100 µM (inactive). In addition, the IC50 under setting [1] is more than 100 µM.

Regarding `Cc1ccnc2nc(C(=O)Nc3ccc(N4CCOCC4)cc3)nn12`, the IC50 result is “inactive”. This compound registered an IC50 under setting [2] of 11.1 µM. For the same compound, under setting [1], the IC50 was more than 100 µM.

In the case of `COc1ccc(N(C(=O)c2ccco2)S(=O)(=O)c2cccs2)cc1`, the IC50 is > 100 µM (inactive). The compound also came in with an IC50 under setting [1] of more than 100 µM.

As to `Cn1c(=O)[nH]c(=O)c2c1nc(Br)n2CCCCSc1nc2ccccc2o1`, the IC50 was > 100 µM (inactive). The IC50 under setting [1] was more than 100 µM.

For `CN(CCO)c1nc(N)c2c(N)nc3c(c2c1C#N)CC(=O)N3C1CCCC1`, the IC50 is > 100 µM (inactive). Further, under setting [1], the IC50 is more than 100 µM.

As for `CCCS(=O)(=O)N1CCC(C(=O)NCCc2ccc(C)cc2)CC1`, the IC50 is > 100 µM (inactive). For the same compound, under setting [1], the IC50 was more than 100 µM.

Take `COc1cc(C(=S)N2CCCC2)cc(OC)c1O`: the IC50 is > 100 µM (inactive). In addition, under setting [1], the IC50 is more than 100 µM.

As for `COCC(=O)NC(c1ccccc1)c1ccccc1`, the IC50 was > 100 µM (inactive). This compound had an IC50 under setting [1] of more than 100 µM.

As to `O=c1/c(=C/c2ccc(O)cc2)sc2n1CCCN=2`, the IC50 result is “inactive”. This compound also returned an IC50 under setting [2] of 2.11 µM. Under setting [1], this compound gave an IC50 of more than 100 µM.

Consider `CCCOc1ccc(N2C(=O)CC(SC(=NCC)Nc3cccc(F)c3)C2=O)cc1` (configuration not stated), for which the IC50 is > 100 µM (inactive). For the same compound, under setting [1], the IC50 was more than 100 µM.

`COc1ccc(NC(=O)C(=O)NCCN2CCN(C(=O)c3cccs3)CC2)cc1`: the IC50 is > 100 µM (inactive). The IC50 under setting [1] is more than 100 µM.

As for `C=CCc1c(C)nc(C)nc1N/N=C/c1ccccc1O`, the IC50 was > 100 µM (inactive). The compound further came in with an IC50 under setting [1] of more than 100 µM.

Consider `Cc1ccc2nc(/C(C#N)=C\c3ccc(N4CCOCC4)o3)[nH]c2c1`, for which the IC50 is > 100 µM (inactive). The compound further displayed an IC50 under setting [1] of more than 100 µM.

As to `Cc1nn(C)c(C)c1CN(C)C(=O)c1cc2nc(-c3ccco3)cc(C(F)(F)F)n2n1`, the IC50 was > 100 µM (inactive). Under setting [1], this compound came in with an IC50 of more than 100 µM.

Turning to `CCC(C)c1ccc(OCC(=O)O)cc1` (configuration not stated), the IC50 is > 100 µM (inactive). The compound also gave an IC50 under setting [1] of more than 100 µM.

For the compound `CCOC(=O)c1c(-c2ccco2)csc1NC(=O)CSc1nnc(N)s1`, the IC50 was > 100 µM (inactive). The compound further had an IC50 under setting [1] of more than 100 µM.

Turning to `Cc1cc(/C([O-])=C(/C(=S)Nc2ccc(F)cc2)[n+]2ccccc2)c(C)n1-c1ccc(F)cc1`, the IC50 was > 100 µM (inactive). Under setting [1], this compound gave an IC50 of more than 100 µM.

Turning to `CCC(=O)N1CCc2cc(S(=O)(=O)NC(C(=O)NCc3ccc(F)cc3)C(C)C)ccc21` (configuration not stated), the IC50 is > 100 µM (inactive). Also, under setting [1], the IC50 was more than 100 µM.

On to `CC(=O)Nc1ccc(C(=O)NC2CCCC2)cc1`, for which the IC50 was > 100 µM (inactive). The compound also came in with an IC50 under setting [1] of more than 100 µM.

With `C=CCn1c(SCc2c(Cl)cccc2Cl)nnc1-c1cccnc1`, the IC50 was > 100 µM (inactive). Moreover, the half-maximal inhibitory concentration (IC50) under setting [1] is more than 100 µM.

Regarding `COc1cc(-c2nn3c(-c4ccccn4)nnc3s2)cc(OC)c1OC`, the IC50 is > 100 µM (inactive). Under setting [1], this compound displayed an IC50 of more than 100 µM.

Turning to `O=C1CC(O)(C(F)F)Oc2ccc3ccccc3c21` (configuration not stated), the IC50 was > 100 µM (inactive). The compound also gave an IC50 under setting [1] of more than 100 µM.
